Common to all, as to test: DSF thermal shift, kinase panel
What all share (type): binding
Holding throughout (settings): 10 μM compound

One assay addresses T1, MAP2K7A (Homo sapiens, UniProt O14733).
T1 construct: purchased in-house (home-made panel, SGC-style construct names)
T1 sequence (O14733 1-419): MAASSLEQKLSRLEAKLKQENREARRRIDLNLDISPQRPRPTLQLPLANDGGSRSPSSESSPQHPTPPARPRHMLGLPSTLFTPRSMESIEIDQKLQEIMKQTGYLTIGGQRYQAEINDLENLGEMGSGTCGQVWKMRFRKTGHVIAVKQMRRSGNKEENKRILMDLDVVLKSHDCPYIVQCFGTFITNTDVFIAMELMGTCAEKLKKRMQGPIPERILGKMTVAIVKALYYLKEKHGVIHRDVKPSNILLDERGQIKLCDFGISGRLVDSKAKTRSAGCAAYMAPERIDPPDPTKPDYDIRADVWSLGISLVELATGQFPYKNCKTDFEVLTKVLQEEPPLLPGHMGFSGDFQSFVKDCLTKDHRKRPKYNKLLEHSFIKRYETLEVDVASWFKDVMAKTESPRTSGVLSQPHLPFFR
The gist of the method:
(§1)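 Thermal denaturation of 1 µM kinase with 10 µM compound present, monitored by dye fluorescence across 25–95 °C; shift in Tm relative to 0.2% DMSO reference.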

For another assay, the target named is T2, CSNK1G3 (Homo sapiens, UniProt Q9Y6M4).
T2 construct: purchased in-house (home-made panel, SGC-style construct names)
Put shortly: as §1

In a further assay the target is T3, RPS6KA5A (Homo sapiens, UniProt O75582).
T3 construct: purchased in-house (home-made panel, SGC-style construct names)
The gist of the method: as §1

The next assay concerns the target T4, PIM1A (Homo sapiens, UniProt P11309).
T4 construct: purchased in-house (home-made panel, SGC-style construct names)
The gist of the method:
as §1

In a further assay the target is T5, MAPK1A (Homo sapiens, UniProt P28482).
T5 construct: purchased in-house (home-made panel, SGC-style construct names)
Put shortly:
as §1

For another assay, the target named is T6, AAK1 (Homo sapiens, UniProt Q2M2I8).
T6 construct: purchased in-house (home-made panel, SGC-style construct names)
Put shortly: as §1

A further assay has as its target T7, VRK2A (Homo sapiens, UniProt Q86Y07).
T7 construct: TEV-cleavable (cleaved yes); made in house; host or cells: E. coli
The gist of the method: as §1

For another assay, the target named is T8, PHKG2A (Homo sapiens, UniProt P15735).
T8 construct: purchased in-house (home-made panel, SGC-style construct names)
T8 sequence (P15735 1-406): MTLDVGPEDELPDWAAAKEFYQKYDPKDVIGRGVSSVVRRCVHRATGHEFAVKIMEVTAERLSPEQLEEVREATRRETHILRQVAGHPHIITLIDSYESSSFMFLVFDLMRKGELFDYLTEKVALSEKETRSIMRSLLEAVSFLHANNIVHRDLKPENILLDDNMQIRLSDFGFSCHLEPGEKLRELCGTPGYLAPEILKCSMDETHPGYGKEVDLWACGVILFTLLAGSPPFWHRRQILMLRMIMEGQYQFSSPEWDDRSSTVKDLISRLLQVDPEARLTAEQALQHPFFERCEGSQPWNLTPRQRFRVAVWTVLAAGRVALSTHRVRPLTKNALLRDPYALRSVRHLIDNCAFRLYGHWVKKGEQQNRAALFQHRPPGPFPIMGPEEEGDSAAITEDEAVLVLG
The gist of the method: as §1

The next assay deals with T9, STK24A (Homo sapiens, UniProt Q9Y6E0).
T9 construct: TEV-cleavable (cleaved yes); made in house; host or cells: E. coli
Put shortly:
as §1

The target of a further assay is T10, CAMKK2B (Homo sapiens, UniProt Q96RR4).
T10 construct: purchased in-house (home-made panel, SGC-style construct names)
Put shortly: as §1

A further assay concerns the target T11, CSNK1G1 (Homo sapiens, UniProt Q9HCP0).
T11 construct: purchased in-house (home-made panel, SGC-style construct names)
Put shortly:
as §1

A further assay concerns the target T12, CLK1 (Homo sapiens, UniProt P49759).
T12 construct: purchased in-house (home-made panel, SGC-style construct names)
Put shortly: as §1

A further assay has as its target T13, SRPK2A (Homo sapiens, UniProt P78362).
T13 construct: purchased in-house (home-made panel, SGC-style construct names)
Put shortly:
as §1

Molecules are shown by their SMILES.

T5 sequence (P28482 whole entry): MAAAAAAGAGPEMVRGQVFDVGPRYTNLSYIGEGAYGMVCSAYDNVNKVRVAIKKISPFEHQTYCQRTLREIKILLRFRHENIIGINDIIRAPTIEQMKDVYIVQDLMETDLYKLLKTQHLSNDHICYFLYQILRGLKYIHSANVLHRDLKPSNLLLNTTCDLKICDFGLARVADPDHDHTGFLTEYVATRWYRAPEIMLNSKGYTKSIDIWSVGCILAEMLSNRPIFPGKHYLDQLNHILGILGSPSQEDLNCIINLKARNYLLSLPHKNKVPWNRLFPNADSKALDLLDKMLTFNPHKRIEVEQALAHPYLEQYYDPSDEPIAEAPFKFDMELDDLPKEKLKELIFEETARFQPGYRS
T10 sequence (Q96RR4 161-449): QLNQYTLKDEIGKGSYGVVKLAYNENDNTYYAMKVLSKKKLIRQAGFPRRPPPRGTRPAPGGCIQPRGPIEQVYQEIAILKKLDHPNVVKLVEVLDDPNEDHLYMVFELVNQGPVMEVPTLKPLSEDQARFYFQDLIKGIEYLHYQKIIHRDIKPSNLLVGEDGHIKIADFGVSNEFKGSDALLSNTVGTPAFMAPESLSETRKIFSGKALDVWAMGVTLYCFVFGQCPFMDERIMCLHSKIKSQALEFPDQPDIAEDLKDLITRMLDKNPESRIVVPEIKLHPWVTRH
T6 sequence (Q2M2I8 whole entry): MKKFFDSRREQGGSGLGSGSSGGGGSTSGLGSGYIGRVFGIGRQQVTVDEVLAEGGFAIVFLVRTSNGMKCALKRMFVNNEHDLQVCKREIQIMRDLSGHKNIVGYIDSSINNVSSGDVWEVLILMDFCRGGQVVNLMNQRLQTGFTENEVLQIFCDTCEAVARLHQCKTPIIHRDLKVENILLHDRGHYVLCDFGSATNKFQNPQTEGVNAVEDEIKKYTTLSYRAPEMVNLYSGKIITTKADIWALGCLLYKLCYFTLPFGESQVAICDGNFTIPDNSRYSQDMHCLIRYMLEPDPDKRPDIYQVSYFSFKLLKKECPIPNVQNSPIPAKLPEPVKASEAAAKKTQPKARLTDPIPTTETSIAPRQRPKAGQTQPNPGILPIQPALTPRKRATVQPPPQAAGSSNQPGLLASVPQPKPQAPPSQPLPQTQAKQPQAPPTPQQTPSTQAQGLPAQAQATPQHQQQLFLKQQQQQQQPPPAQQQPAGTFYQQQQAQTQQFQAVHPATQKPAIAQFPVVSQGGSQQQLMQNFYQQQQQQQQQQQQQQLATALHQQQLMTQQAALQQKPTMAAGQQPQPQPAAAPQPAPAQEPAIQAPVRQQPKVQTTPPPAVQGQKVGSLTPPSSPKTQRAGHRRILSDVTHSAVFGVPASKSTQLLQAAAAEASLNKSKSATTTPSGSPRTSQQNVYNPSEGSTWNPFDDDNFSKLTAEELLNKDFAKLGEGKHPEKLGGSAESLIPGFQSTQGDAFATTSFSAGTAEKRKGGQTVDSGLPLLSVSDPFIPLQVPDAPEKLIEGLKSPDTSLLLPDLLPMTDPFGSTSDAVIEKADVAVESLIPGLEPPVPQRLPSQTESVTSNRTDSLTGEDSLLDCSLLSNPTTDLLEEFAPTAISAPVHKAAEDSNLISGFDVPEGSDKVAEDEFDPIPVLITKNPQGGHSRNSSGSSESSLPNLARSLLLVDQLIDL
T13 sequence (P78362 whole entry): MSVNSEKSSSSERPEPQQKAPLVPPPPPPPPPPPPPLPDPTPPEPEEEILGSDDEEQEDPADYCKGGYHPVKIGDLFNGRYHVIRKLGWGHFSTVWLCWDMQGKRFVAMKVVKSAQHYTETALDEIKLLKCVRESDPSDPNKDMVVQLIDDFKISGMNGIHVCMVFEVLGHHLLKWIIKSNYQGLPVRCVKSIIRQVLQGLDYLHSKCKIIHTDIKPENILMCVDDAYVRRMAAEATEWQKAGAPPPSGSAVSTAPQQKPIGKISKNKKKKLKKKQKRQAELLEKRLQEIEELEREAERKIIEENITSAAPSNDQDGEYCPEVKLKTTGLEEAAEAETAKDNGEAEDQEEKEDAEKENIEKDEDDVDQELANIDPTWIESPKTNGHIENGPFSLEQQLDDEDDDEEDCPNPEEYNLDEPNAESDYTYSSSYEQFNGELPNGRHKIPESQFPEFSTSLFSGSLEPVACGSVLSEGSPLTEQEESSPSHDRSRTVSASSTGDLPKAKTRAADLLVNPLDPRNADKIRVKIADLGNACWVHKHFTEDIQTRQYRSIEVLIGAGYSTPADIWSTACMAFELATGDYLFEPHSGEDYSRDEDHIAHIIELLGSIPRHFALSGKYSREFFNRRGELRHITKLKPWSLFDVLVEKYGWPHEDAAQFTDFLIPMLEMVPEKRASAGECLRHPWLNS
T12 sequence (P49759 whole entry): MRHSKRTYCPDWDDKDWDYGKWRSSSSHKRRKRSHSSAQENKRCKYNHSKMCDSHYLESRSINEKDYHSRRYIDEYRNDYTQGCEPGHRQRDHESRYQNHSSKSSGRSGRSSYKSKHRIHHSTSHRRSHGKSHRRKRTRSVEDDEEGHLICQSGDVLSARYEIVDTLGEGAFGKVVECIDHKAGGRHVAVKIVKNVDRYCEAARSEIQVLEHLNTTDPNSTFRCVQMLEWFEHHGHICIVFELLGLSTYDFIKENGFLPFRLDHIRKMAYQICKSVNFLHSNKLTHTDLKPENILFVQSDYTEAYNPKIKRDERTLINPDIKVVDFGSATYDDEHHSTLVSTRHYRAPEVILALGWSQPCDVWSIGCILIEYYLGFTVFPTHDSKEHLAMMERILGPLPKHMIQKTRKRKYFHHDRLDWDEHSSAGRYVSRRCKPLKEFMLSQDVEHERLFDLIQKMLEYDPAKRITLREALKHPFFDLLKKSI
T2 sequence (Q9Y6M4 whole entry): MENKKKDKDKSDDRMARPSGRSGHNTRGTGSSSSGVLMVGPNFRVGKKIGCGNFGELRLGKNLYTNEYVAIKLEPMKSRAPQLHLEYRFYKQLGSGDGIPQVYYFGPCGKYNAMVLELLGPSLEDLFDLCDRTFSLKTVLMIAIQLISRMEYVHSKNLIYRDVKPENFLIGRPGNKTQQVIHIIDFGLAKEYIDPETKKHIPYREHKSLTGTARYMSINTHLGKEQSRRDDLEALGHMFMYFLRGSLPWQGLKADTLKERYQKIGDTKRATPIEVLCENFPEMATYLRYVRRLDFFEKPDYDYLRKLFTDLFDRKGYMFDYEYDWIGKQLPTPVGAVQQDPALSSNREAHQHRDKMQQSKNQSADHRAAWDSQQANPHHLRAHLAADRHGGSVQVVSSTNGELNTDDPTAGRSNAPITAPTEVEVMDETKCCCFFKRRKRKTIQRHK
T7 sequence (Q86Y07 whole entry): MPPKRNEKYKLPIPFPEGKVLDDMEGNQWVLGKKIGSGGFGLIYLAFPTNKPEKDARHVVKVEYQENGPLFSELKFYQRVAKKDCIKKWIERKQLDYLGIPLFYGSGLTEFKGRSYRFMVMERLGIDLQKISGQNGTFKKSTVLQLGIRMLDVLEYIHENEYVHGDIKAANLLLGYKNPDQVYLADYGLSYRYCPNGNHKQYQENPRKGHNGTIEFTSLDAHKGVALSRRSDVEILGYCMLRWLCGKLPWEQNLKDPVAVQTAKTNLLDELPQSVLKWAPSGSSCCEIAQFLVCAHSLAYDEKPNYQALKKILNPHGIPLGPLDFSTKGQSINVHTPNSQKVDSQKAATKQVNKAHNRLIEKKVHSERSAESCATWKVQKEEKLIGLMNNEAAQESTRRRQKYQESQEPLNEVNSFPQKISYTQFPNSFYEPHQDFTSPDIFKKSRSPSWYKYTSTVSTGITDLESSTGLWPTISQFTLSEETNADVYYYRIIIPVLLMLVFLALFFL
T4 sequence (P11309 whole entry): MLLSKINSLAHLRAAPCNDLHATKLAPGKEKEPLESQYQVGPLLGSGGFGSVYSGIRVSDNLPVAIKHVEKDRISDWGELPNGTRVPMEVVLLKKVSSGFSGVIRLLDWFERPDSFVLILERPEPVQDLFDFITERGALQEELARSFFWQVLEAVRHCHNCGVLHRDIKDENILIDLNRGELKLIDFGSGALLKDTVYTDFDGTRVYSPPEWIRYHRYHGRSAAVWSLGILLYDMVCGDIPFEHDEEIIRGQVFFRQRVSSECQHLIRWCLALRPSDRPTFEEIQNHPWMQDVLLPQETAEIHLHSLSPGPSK
T3 sequence (O75582 whole entry): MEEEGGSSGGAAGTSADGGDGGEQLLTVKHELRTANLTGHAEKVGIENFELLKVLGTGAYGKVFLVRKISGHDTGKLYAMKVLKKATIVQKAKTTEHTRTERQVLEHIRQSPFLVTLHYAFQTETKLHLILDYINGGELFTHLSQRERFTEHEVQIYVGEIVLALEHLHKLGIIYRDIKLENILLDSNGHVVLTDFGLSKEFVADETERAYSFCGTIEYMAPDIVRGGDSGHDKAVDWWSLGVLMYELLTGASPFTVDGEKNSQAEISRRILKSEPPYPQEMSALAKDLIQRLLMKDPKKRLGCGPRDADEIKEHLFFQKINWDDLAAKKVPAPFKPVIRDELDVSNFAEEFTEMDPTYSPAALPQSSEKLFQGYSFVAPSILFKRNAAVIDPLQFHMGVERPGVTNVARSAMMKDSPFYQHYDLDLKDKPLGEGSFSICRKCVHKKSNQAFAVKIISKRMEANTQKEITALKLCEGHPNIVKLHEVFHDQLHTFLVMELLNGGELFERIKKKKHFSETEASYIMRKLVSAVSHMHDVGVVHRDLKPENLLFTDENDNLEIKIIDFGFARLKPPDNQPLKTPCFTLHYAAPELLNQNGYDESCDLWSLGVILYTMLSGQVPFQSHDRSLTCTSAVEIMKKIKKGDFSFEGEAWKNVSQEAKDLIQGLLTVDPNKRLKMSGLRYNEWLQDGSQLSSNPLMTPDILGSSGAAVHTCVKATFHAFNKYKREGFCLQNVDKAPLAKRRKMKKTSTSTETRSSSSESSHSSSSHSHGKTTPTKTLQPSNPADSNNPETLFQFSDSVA

Regarding `CNC(=O)c1ccccc1Nc1nsnc(Nc2cccc(CS(C)(=O)=O)c2)c1=O` [Compound 4, N-Methyl-2-([5-({3-[(methylsulfonyl)methyl]phenyl}amino)-4-oxo-4H-1,2,6-thiadiazin-3-yl]-amino}-benzamide], the ΔTm at 10 µM at MAP2K7A was 0.6 °C; on CSNK1G3 it was -0.1 °C; at RPS6KA5A, -1.2 °C; at PIM1A, -0.7 °C; on MAPK1A it was -0.3 °C; on AAK1, -0.4 °C. In addition, the thermal shift (ΔTm) at 10 µM was -0.3 °C on VRK2A; 0.2 °C on PHKG2A; 0 °C on STK24A; -0.4 °C at CAMKK2B; 0.3 °C on CSNK1G1; 0 °C on CLK1. Besides, on SRPK2A, the ΔTm at 10 µM is -0.3 °C.

In the case of `CNC(=O)c1ccccc1Nc1nsnc(Nc2ccc(N3CCOCC3)cc2)c1=O` [Compound 5, N-Methyl-2-({5-[(4-morpholinophenyl)amino]-4-oxo-4H-1,2,6-thiadiazin-3-yl}amino)benzamide], the ΔTm at 10 µM is 1 °C on MAP2K7A; 0 °C on CSNK1G3; -1.1 °C on RPS6KA5A; -0.2 °C on PIM1A; -0.3 °C on MAPK1A; -0.4 °C on AAK1. For the same compound, the ΔTm at 10 µM is -0.3 °C at VRK2A; 0.2 °C at PHKG2A; -1.1 °C on STK24A; -0.5 °C at CAMKK2B; 0 °C on CSNK1G1; 1 °C on CLK1. The ΔTm at 10 µM on SRPK2A was -0.1 °C.

Regarding `Cc1ccc(Nc2nsnc(Nc3cccc(C(N)=O)c3)c2=O)cc1O` [Compound 1, 3-({5-[(3-Hydroxy-4-methylphenyl)amino]-4-oxo-4H-1,2,6-thiadiazin-3-yl}amino)benzamide], the ΔTm at 10 µM on MAP2K7A was 1.1 °C; at CSNK1G3 it was 0 °C; at RPS6KA5A, -0.9 °C; at PIM1A, 1 °C; at MAPK1A it was -0.2 °C; on AAK1, 0.6 °C. For the same compound, the ΔTm at 10 µM on VRK2A was -0.6 °C; on PHKG2A, 0.7 °C; at STK24A it was -0.1 °C; on CAMKK2B, 0.5 °C; on CSNK1G1, -0.6 °C; on CLK1 it was 0.5 °C. On SRPK2A, the ΔTm at 10 µM was -0.2 °C.

For `Cc1ccc(Nc2nsnc(Nc3ccc(C(N)=O)cc3)c2=O)cc1O` [Compound 2, 4-({5-[(3-Hydroxy-4-methylphenyl)amino]-4-oxo-4H-1,2,6-thiadiazin-3-yl}amino)benzamide], the ΔTm at 10 µM was found to be 3.1 °C at MAP2K7A; 0.1 °C at CSNK1G3; 1.7 °C at RPS6KA5A; 3.5 °C at PIM1A; 1.4 °C on MAPK1A; 1.5 °C on AAK1. Also, the ΔTm at 10 µM at VRK2A is 1.8 °C; on PHKG2A, 2.4 °C; on CAMKK2B it was 2.9 °C; at CSNK1G1, -1 °C; on CLK1, 0.9 °C; on SRPK2A, 0.6 °C.

Turning to `Cc1ccc(Nc2nsnc(Nc3ccc4c(c3)CS(=O)(=O)C4)c2=O)cc1O` [Compound 3, 3-[(2,2-Dioxido-1,3-dihydrobenzo[c]thiophen-5-yl)amino]-5-[(3-hydroxy-4-methylphenyl)amino]-4H-1,2,6-thiadiazin-4-one], the thermal shift (ΔTm) at 10 µM is 3.2 °C at MAP2K7A; -0.2 °C on CSNK1G3; -0.3 °C on RPS6KA5A; 4.1 °C on PIM1A; 0.1 °C on MAPK1A; 0.6 °C on AAK1. The ΔTm at 10 µM was 0.1 °C at VRK2A; 1.6 °C at PHKG2A; -0.3 °C on STK24A; 2.3 °C at CAMKK2B; -0.7 °C on CSNK1G1; 2.1 °C at CLK1. For the same compound, on SRPK2A, the shift in melting temperature (ΔTm) at 10 µM came to 0.1 °C.

Source of the values: PMC6019134, “1,2,6-Thiadiazinones as Novel Narrow Spectrum Calcium/Calmodulin-Dependent Protein Kinase Kinase 2 (CaMKK2) Inhibitors” (Molecules : A Journal of Synthetic Chemistry and Natural …, 2018).
